From PubChem BioAssay AID1963848 (Molecular Pharmacology Branch, DTP, NCI, 2024)

Test system: 379773-124-R-J2-PDC spheroid viability
Test: Anticancer human tumor 379773-124-R-J2-PDC patient-derived endometrial carcinoma cell line growth inhibition [POLQ]
Conditions: spheroids with HUVEC and MSC; for IC50: curve of first compound; for viability, T/C: stronger effect = lower value
How it was run: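 Patient-derived tumour cells were co-cultured with HUVEC and mesenchymal stem cells as multicellular spheroids at 37 °C. They were treated with POLQ inhibitors (novobiocin, ART-558, RP6685) alone or combined with other agents. Top concentrations were at or near clinical Cmax (otherwise 10 microM; SN-38 at 1 microM), decreasing in half-log steps.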

[1] = second compound 0.0316 µM, first compound 0.0316 µM
[2] = second compound 0.0316 µM, first compound 0.1 µM
[3] = second compound 0.0316 µM, first compound 0.316 µM
[4] = second compound 0.0316 µM, first compound 1 µM
[5] = second compound 0.0316 µM, first compound 3.16 µM
[6] = second compound 0.0316 µM, first compound 10 µM
[7] = second compound 0.1 µM, first compound 0.0316 µM
[8] = second compound 0.1 µM, first compound 0.1 µM
[9] = second compound 0.1 µM, first compound 0.316 µM
[10] = second compound 0.1 µM, first compound 1 µM
[11] = second compound 0.1 µM, first compound 3.16 µM
[12] = second compound 0.1 µM, first compound 10 µM
[13] = second compound 0.316 µM, first compound 0.0316 µM
[14] = second compound 0.316 µM, first compound 0.1 µM
[15] = second compound 0.316 µM, first compound 0.316 µM
[16] = second compound 0.316 µM, first compound 1 µM
[17] = second compound 0.316 µM, first compound 3.16 µM
[18] = second compound 0.316 µM, first compound 10 µM
[19] = second compound 1 µM, first compound 0.0316 µM
[20] = second compound 1 µM, first compound 0.1 µM
[21] = second compound 1 µM, first compound 0.316 µM
[22] = second compound 1 µM, first compound 1 µM
[23] = second compound 1 µM, first compound 3.16 µM
[24] = second compound 1 µM, first compound 10 µM
[25] = second compound 3.16 µM, first compound 0.0316 µM
[26] = second compound 3.16 µM, first compound 0.1 µM
[27] = second compound 3.16 µM, first compound 0.316 µM
[28] = second compound 3.16 µM, first compound 1 µM
[29] = second compound 3.16 µM, first compound 3.16 µM
[30] = second compound 3.16 µM, first compound 10 µM
[31] = second compound 10 µM, first compound 0.0316 µM
[32] = second compound 10 µM, first compound 0.1 µM
[33] = second compound 10 µM, first compound 0.316 µM
[34] = second compound 10 µM, first compound 1 µM
[35] = second compound 10 µM, first compound 3.16 µM
[36] = second compound 10 µM, first compound 10 µM
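Further: spheroids exposed to drugs for seven days before readout.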
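Wherever viability, T/C is given: percent viability relative to DMSO vehicle control taken as 100%.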

In the case of `COc1cccc2c1C(=O)c1c(O)c3c(c(O)c1C2=O)CC(O)(C(=O)CO)CC3OC1CC(N)C(O)C(C)O1` (stereo unspecified) + COC1C(OC(N)=O)C(O)C(Oc2ccc3c(O)c(NC(=O)c4ccc(O)c(CC=C(C)C)c4)c(=O)oc3c2C)OC1(C)C, the IC50 (second compound 0.0316 µM) is reported as 0.0568 µM, the IC50 (second compound 0.1 µM) is reported as 0.0644 µM and the IC50 (second compound 0.316 µM) is reported as 0.066 µM. For the same compound, the IC50 (second compound 1 µM) was 0.0618 µM, the IC50 (second compound 3.16 µM) was 0.0556 µM and the IC50 (second compound 10 µM) was 0.0585 µM. It also gave a viability, T/C [1] of 77.5%, a viability, T/C [2] of 23.3% and a viability, T/C [3] of 6.61%. It also gave a viability, T/C [4] of 6.45%, a viability, T/C [5] of 0.84% and a viability, T/C [6] of 0.73%. The viability, T/C [7] was 85.7%, the viability, T/C [8] was 27.9% and the viability, T/C [9] was 6.63%. The viability, T/C [10] was 6.52%, the viability, T/C [11] was 1% and the viability, T/C [12] was 0.1%. For the same compound, the viability, T/C [13] was 83.4%, the viability, T/C [14] was 31.3% and the viability, T/C [15] was 8.56%. It also gave a viability, T/C [16] of 7.02%, a viability, T/C [17] of 1.52% and a viability, T/C [18] of 1.06%. For the same compound, the viability, T/C [19] was 82.8%, the viability, T/C [20] was 26.2% and the viability, T/C [21] was 8.01%. The viability, T/C [22] was 5.55%, the viability, T/C [23] was 1.26% and the viability, T/C [24] was 0.1%. It also gave a viability, T/C [25] of 75.7%, a viability, T/C [26] of 23.2% and a viability, T/C [27] of 6.39%. For the same compound, the viability, T/C [28] was 6.03%, the viability, T/C [29] was 1.65% and the viability, T/C [30] was 0.73%. For the same compound, the viability, T/C [31] was 84%, the viability, T/C [32] was 19.4% and the viability, T/C [33] was 7.68%. It also gave a viability, T/C [34] of 5.68%, a viability, T/C [35] of 0.98% and a viability, T/C [36] of 0.19%.
In the case of `O=C(c1cc(Cc2n[nH]c(=O)c3ccccc23)ccc1F)N1CCN(C(=O)C2CC2)CC1` + Nc1ccc(C#CCN(C(=O)Cc2ncc(C(F)(F)F)cc2C(F)(F)F)c2ccc(F)cc2)nn1, the IC50 (second compound 0.0316 µM) is reported as 9.3 µM, the IC50 (second compound 0.1 µM) is reported as 8.88 µM and the IC50 (second compound 0.316 µM) is reported as greater than 10 µM. It also gave an IC50 (second compound 1 µM) of 9.76 µM, an IC50 (second compound 3.16 µM) greater than 10 µM and an IC50 (second compound 10 µM) of 9.98 µM. For the same compound, the viability, T/C [1] was 87.2%, the viability, T/C [2] was 93.1% and the viability, T/C [3] was 82.5%. For the same compound, the viability, T/C [4] was 89.9%, the viability, T/C [5] was 87.8% and the viability, T/C [6] was 47.5%. The viability, T/C [7] was 85.1%, the viability, T/C [8] was 94.2% and the viability, T/C [9] was 94%. For the same compound, the viability, T/C [10] was 83%, the viability, T/C [11] was 91.1% and the viability, T/C [12] was 45.5%. It also gave a viability, T/C [13] of 89.8%, a viability, T/C [14] of 90% and a viability, T/C [15] of 92.7%. It also gave a viability, T/C [16] of 91.3%, a viability, T/C [17] of 82% and a viability, T/C [18] of 50.6%. The viability, T/C [19] was 95.1%, the viability, T/C [20] was 100% and the viability, T/C [21] was 94%. It also gave a viability, T/C [22] of 85.2%, a viability, T/C [23] of 83.1% and a viability, T/C [24] of 48.4%. For the same compound, the viability, T/C [25] was 88.1%, the viability, T/C [26] was 88.7% and the viability, T/C [27] was 84.7%. The viability, T/C [28] was 93.2%, the viability, T/C [29] was 89.8% and the viability, T/C [30] was 52.2%. For the same compound, the viability, T/C [31] was 87.8%, the viability, T/C [32] was 89.2% and the viability, T/C [33] was 89.3%. It also gave a viability, T/C [34] of 96.5%, a viability, T/C [35] of 84.5% and a viability, T/C [36] of 49.5%.
With `C=CC(=O)N1CCN(c2nc(=O)n(-c3c(C)ccnc3C(C)C)c3nc(-c4c(O)cccc4F)c(F)cc23)C(C)C1` (stereo unspecified) + COC1C(OC(N)=O)C(O)C(Oc2ccc3c(O)c(NC(=O)c4ccc(O)c(CC=C(C)C)c4)c(=O)oc3c2C)OC1(C)C the IC50 (second compound 0.0316 µM) was greater than 10 µM, the IC50 (second compound 0.1 µM) was greater than 10 µM and the IC50 (second compound 0.316 µM) was greater than 10 µM. The IC50 (second compound 1 µM) was greater than 10 µM, the IC50 (second compound 3.16 µM) was greater than 10 µM and the IC50 (second compound 10 µM) was greater than 10 µM. The viability, T/C [1] was 87.3%, the viability, T/C [2] was 78.7% and the viability, T/C [3] was 91.3%. The viability, T/C [4] was 85.1%, the viability, T/C [5] was 85.7% and the viability, T/C [6] was 72.1%. For the same compound, the viability, T/C [7] was 87.3%, the viability, T/C [8] was 87.2% and the viability, T/C [9] was 82.2%. For the same compound, the viability, T/C [10] was 91.1%, the viability, T/C [11] was 87.9% and the viability, T/C [12] was 95%. For the same compound, the viability, T/C [13] was 91.2%, the viability, T/C [14] was 86.7% and the viability, T/C [15] was 86.8%. For the same compound, the viability, T/C [16] was 85.1%, the viability, T/C [17] was 79.3% and the viability, T/C [18] was 82.6%. It also gave a viability, T/C [19] of 92.1%, a viability, T/C [20] of 94.8% and a viability, T/C [21] of 93.9%. For the same compound, the viability, T/C [22] was 88.8%, the viability, T/C [23] was 73.8% and the viability, T/C [24] was 95.8%. For the same compound, the viability, T/C [25] was 73.2%, the viability, T/C [26] was 84.6% and the viability, T/C [27] was 82.9%. For the same compound, the viability, T/C [28] was 85%, the viability, T/C [29] was 85.9% and the viability, T/C [30] was 72.1%. The viability, T/C [31] was 91.1%, the viability, T/C [32] was 85.1% and the viability, T/C [33] was 81.5%. The viability, T/C [34] was 80.5%, the viability, T/C [35] was 86% and the viability, T/C [36] was 89.4%.
